Measured values taken from PMC10443802, “Targeting a xenobiotic transporter to ameliorate vincristine-induced sensory neuropathy” (JCI Insight, 2023).
Where “and” joins values, the source holds several entries; their conditions need not be identical. Identical values can stand only once.

Legend:
hOATP1B1 = molecular target: T1, hOATP1B1 (Homo sapiens, UniProt Q9Y6L6); assay: Inhibition of vincristine uptake in HEK293 cells overexpressing hOATP1B1; settings: inhibitor 15 min pre-treatment
T1 sequence (Q9Y6L6 1-691): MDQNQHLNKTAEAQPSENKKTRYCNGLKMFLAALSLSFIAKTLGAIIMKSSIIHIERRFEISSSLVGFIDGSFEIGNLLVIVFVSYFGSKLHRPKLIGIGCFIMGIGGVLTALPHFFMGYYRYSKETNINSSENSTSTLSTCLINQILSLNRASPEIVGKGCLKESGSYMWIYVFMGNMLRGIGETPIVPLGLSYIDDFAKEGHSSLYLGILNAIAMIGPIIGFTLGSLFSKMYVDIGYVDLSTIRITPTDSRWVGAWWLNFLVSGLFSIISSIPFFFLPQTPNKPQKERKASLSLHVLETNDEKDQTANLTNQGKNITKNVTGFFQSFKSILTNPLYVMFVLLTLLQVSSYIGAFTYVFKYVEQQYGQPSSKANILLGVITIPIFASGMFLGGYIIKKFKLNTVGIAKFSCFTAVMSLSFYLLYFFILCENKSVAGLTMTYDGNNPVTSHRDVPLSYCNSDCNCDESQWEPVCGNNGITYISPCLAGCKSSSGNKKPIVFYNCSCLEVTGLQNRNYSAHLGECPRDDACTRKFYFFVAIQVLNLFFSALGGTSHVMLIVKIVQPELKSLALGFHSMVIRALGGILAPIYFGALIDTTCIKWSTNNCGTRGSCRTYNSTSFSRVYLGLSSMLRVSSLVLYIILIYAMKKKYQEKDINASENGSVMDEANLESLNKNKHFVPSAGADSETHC

mOATP1B2 = molecular target: T2, mOATP1B2 (Mus musculus, UniProt Q9JJL3); assay: Nilotinib uptake in HEK293 cells overexpressing mOATP1B2; assay type: in vitro ADME; settings: HEK293 cells overexpressing mOATP1B2 vs vector control
T2 sequence (Q9JJL3 1-689): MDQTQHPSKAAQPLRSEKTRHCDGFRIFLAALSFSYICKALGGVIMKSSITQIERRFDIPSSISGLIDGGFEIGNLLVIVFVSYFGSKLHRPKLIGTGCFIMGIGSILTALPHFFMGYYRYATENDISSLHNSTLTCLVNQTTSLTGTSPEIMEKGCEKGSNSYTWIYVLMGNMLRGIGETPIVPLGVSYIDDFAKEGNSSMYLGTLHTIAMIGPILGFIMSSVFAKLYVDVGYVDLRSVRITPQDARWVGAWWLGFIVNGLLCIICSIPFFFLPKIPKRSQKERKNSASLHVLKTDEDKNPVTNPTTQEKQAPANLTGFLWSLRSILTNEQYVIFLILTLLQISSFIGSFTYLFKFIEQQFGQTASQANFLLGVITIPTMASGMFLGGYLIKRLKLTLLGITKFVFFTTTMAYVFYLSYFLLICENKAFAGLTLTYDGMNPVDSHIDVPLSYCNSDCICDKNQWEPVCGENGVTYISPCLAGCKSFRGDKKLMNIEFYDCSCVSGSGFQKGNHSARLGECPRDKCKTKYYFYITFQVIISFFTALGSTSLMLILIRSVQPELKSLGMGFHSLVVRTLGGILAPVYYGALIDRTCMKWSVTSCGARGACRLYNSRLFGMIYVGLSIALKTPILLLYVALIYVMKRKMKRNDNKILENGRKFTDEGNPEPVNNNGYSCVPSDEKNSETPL

L1210 = settings: vincristine 1 μM, 30 min, nilotinib 10 μM
Text: (A) Gene expression of the OATP1B2 gene in L1210 and P388D1 murine leukemia cells
normalized to total protein levels. All data presented represent the mean (bars) ± SEM (error bars).

hOATP3A1 = hOATP3A1 (Homo sapiens, UniProt Q9UIG8); assay: Vincristine uptake screen, HeLa cells overexpressing hOATP3A1; assay type: in vitro ADME
Sequence of hOATP3A1 (Q9UIG8 whole entry): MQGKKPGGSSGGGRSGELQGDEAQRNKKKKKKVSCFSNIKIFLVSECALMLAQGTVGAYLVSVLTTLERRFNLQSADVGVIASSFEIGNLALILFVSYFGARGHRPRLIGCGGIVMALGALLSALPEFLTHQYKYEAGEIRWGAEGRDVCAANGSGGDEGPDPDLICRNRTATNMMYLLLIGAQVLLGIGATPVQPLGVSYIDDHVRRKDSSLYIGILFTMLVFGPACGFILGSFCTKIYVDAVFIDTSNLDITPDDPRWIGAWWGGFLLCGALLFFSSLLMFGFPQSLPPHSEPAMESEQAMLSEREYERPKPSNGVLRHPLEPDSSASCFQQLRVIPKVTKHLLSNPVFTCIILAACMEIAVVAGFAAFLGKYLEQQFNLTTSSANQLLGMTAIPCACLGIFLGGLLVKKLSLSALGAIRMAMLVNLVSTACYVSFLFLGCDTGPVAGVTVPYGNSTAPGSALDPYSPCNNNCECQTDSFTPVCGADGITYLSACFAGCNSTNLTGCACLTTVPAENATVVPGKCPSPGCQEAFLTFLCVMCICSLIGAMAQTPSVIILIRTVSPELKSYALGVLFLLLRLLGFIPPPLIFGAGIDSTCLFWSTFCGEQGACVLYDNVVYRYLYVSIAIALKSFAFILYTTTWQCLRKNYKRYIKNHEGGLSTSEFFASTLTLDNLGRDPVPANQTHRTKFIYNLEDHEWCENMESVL
Method: Relative uptake is expressed as percentage change compared with empty vector controls (n = 4–14 per group). […] Human OATP1B1 and OATP1B3 transporter–overexpressed cells were used as positive controls; empty vector controls were used as the negative control. […] Mechanical allodynia (C), thermal hyperalgesia (D), and sciatic nerve maximal action potential amplitudes (E) are expressed as percentage change relative to baseline values (n = 6–8 per group). Statistical analysis was performed using a 2-way ANOVA with Bonferroni’s post hoc test. **P < 0.01, ***P < 0.001, ****P < 0.0001, compared with baseline values. […] Data are shown as mean ± SEM. […]
transfected with transporters of interest, including hOAT1, hOAT3, hOAT4, hOATP1A2, hOATP3A1, hOATP4A1, hOATP5A1, hOATP1C1, hOATP1B1, hOATP1B3, hOATP2B1, hOCT1, hOCT2, hOCTN1, hOCTN2, hASBT, hNTCP, hNPT1, hMATE1, hOSTα/β, hPEPT1, hPEPT2, rOatp1a1, rOatp1a4, rOatp1a5, rOatp1b2, rNtcp, rAsbt, rOat1, and rOct1. Cells were transfected with expression plasmid or vector control lacking any insert using Lipofectin reagent (Invitrogen). Sixteen hours thereafter, cells were washed with transport media (OPTIMEM, Invitrogen) and treated with radiolabeled drug. […] The cellular radioactivity was quantified by liquid scintillation counting as described above. […]

mice = assay: Gross motor performance, automated elevated ladder test; assay type: in vivo, mouse

SMILES | Vincristine uptake (% of vehicle) (hOATP1B1) | Nilotinib uptake (% of control) (mOATP1B2) | Influence on uptake of vincristine (L1210) | Vincristine uptake (% of vector control) (hOATP3A1) | Gross motor performance (automated ladder and open field tests) (mice; WT mice or OATP1B2-/- mice, single i.p. dose 1 mg/kg) | Number of missed steps (mice; Wild-type mice, Day 2)
Cc1cn(-c2cc(NC(=O)c3ccc(C)c(Nc4nccc(-c5cccnc5)n4)c3)cc(C(F)(F)F)c2)cn1 [Nilotinib, nilotinib] | 101.303 % of vehicle and 90.7094 % of vehicle and 62.8074 % of vehicle and 106.906 % of vehicle and 107.581 % of vehicle and 108.402 % of vehicle | 68.9093 % of control and 50.5858 % of control and 83.427 % of control | did not influence the uptake of vincristine |  |  | 
CC[C@]1(O)C[C@H]2CN(CCc3c([nH]c4ccccc34)[C@@](C(=O)OC)(c3cc4c(cc3OC)N(C=O)[C@H]3[C@@](O)(C(=O)OC)[C@H](OC(C)=O)[C@]5(CC)C=CCN6CC[C@]43[C@@H]65)C2)C1 [Vincristine, vincristine] |  |  |  | 104.00 % of vector control and 96.00 % of vector control and 76.00 % of vector control and 101.00 % of vector control and 79.00 % of vector control and 120.00 % of vector control and 100.00 % of vector control and 111.00 % of vector control | did not affect gross motor performance | 7.667 and 9.667 and 8.333 and 5.667 and 8 and 10.6667 and 9.333
